Source: patent US20250213707A1, “COMPOUND FOR INCREASING EFFICACY OF ONCOLYTIC VIRUSES” (ABLEVIA BIOTECH GMBH, priority 2022, published 2025)

Assays:
[1] = system: mAb Mac2-158; assay: Epitope mapping of mAb Mac2-158 with circular peptides of human CD163 SRCR domain 1; format: binding; details: circular peptides aligned to SRCR domain 1 of human CD163
Source text: As a result, the following sequences (as well as motifs derived therefrom) are highly suitable epitopes anti-CD163 antibodies and fragments thereof used as SADC biopolymer scaffold: […]

[2] = system: IgG from human donors (anti-AAV antibodies); assay: Screen for anti-AAV antibodies in human sera, 2452 linear 15-amino-acid AAV peptides on microarrays (Table 1); format: binding; design: key to group I: X: the deduplicated aggregate of the respective top 10 peptide hits for each donor was compiled and designated as group I; key to group II: X: the deduplicated aggregate of the respective top 25 peptide hits for each donor was compiled and designated as group II; key to group III: X: the deduplicated aggregate of the respective top 50 peptide hits for each donor was compiled and designated as group III; details: human donor IgG binding to linear 15-amino-acid AAV peptides on microarray, fluorescence; for group I: membership in deduplicated aggregate of top 10 peptide hits for each donor; for group II: membership in deduplicated aggregate of top 25 peptide hits for each donor; for group III: membership in deduplicated aggregate of top 50 peptide hits for each donor
How it was run: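 Peptide hits were grouped I to IV by pooling each donor's top 10, 25, 50 or 250 background-corrected fluorescence signals, after deduplication. Signals came from donor IgG, purified on protein G, bound to arrayed 15-residue linear peptides (2452 total) spanning 16 AAV sequences.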

[3] = system: mAb 9C12; assay: Epitope mapping of monoclonal antibody 9C12 against cyclic peptides of the AdV hexon protein (peptide microarray); format: binding, mice; details: cyclic 7mer, 10mer, 13mer peptides of AdV hexon
Method: Monoclonal antibody 9C12 (alias mAB TC31-9C12·C9-s) was generated by immunizing mice with the hexon protein (Uniprot ID: P04133 which corresponds to GenBank: BAG48782.1). […] In brief, diluted antibody was incubated with GFP-expressing replication-defective Ad vector and subsequently added to Hela cells followed by fluorescence readout. […] The binding signal of mAb 9C12 to the peptides yielded several candidates that could be aligned and clustered against the protein. An epitopic cluster region of 20 amino acids was identified from which paratope binding peptides can be preferentially derived. Below are the aligments of the corresponding peptide hits from this screen. […] Cyclic peptides were selected out of up to 50 top binders in this experiment.

Substance | peptide number among the top 20 peptide hits of mAb Mac2-158 [1] | group I [2] | group II [2] | group III [2] | ranked binding signal obtained from the microarray (01 binds strongest) [3]
GQTGDSESVPDPQP [SEQ ID NO: 1911] | 08 | X | X | X | –
QLKAGDNPYLRYNH (REGION 1..14: note = peptide derived from viral capsid protein) [SEQ ID NO: 1913] | 13 | X | X | X | –
LIKNTPVPADPPTT (REGION 1..14: note = peptide derived from viral capsid protein) [SEQ ID NO: 1900] | 12 | X | X | X | –
365 (CSGRVEVKVQEEW) [compound 365] | 07 | – | – | – | –
KRPVDQSPQEPDSS (REGION 1..14: note = peptide derived from viral capsid protein) [SEQ ID NO: 1986] | – | X | X | X | 19
GADGVGNSSGNWHC (REGION 1..14: note = peptide derived from viral capsid protein) [SEQ ID NO: 1982] | – | X | X | X | 15
TQYSTGQVSVEIEW (REGION 1..14: note = peptide derived from viral capsid protein) [SEQ ID NO: 1969] | – | X | X | X | 02
VTQNEGTKTIANNL [SEQ ID NO: 1970] | – | X | X | X | 03
DAEFQERLKEDTSF (REGION 1..14: note = peptide derived from viral capsid protein) [SEQ ID NO: 1975] | – | X | X | X | 08
DGHFHPSPLMGGFG (REGION 1..14: note = peptide derived from viral capsid protein) [SEQ ID NO: 1977] | – | X | X | X | 10
DDEEKFFPMHGNLI [SEQ ID NO: 1976] | – | X | X | X | 09
EEIRTTNPVATEQY (REGION 1..14: note = peptide derived from viral capsid protein) [SEQ ID NO: 1980] | – | X | X | X | 13
FQERLKEDTSFGGN (REGION 1..14: note = peptide derived from viral capsid protein) [SEQ ID NO: 1981] | – | X | X | X | 14
EEEIRTTNPVATEQ (REGION 1..14: note = peptide derived from viral capsid protein) [SEQ ID NO: 1979] | – | X | X | X | 12
GNGLDKGEPVNAAD [SEQ ID NO: 1984] | – | X | X | X | 17
YFGYSTPWGYFDFN (REGION 1..14: note = peptide derived from viral capsid protein) [SEQ ID NO: 1972] | – | X | X | X | 05
